Measured values: paper PMC11004067, “Identification and characterization of a calcium-binding peptide from salmon bone for the targeted inhibition of α-amylase in digestion” (Food Chemistry: X, 2024)

Columns and labels:
[1] = system: 3 T3-L1 preadipocytes; assay: Cell viability (MTT) in 3 T3-L1 preadipocytes; format: cell-based; settings: 24 h, 1 to 100 μg/mL
Description: With slight modifications based on the method ([Cui et al., 2019]). MTT method was used to assess the proliferative effects of different concentrations of orlistat, SBTH and PIE on 3 T3-L1 preadipocytes. Cells were treated with different samples for 24 h. Finally, the absorbance at 490 nm was measured using a Microplate Reader (Synergy H1, BioTek, USA).

[2] = system: 3 T3-L1 preadipocytes; assay: Total cellular cholesterol content; format: cell-based; settings: 1000 μg/mL
Description: (§1) With minor modifications based on the method ([Lee et al., 2023]). 3 T3-L1 Preadipocytes were cultured at 37 °C and 5% CO2 until 80% fusion, passaged and differentiated. After induction with inducers for 8d, the cells were then cultured with DMEM containing 1% PS and 10% FBS for 4d.
Total cellular cholesterol content was measured using a kit (JianCheng, Nanjing, China). The […] enzymatic method was used according to the manufacturer's instructions. Protein concentration was measured using the BCA protein assay kit (Solarbio, Beijing, China).

[3] = Effect of PIE on body weight in mice; format: in vivo; settings: 30 mg/kg by gavage, 12 weeks, female BALB/c mice
Description: The animal study was approved by the Animal Ethics Committee of Dalian Polytechnic University (protocol ID SYXK2017–0005) per the guidelines of the National Institutes of Health Laboratory Animals for Animal Care. 10-week-old female BALB/c mice (L20160258, Dalian Medical University, Liaoning, China) were acclimatized with normal chow for 2 d, and were randomly separated 2 groups (n = 8): the control group (saline) and the PIE group (at a dose of 30 mg PIE/kg body weight). Both groups were maintained on a basal diet throughout the study. Given that mice are nocturnal feeders, gavage was performed between 5:00–6:00 PM. Body weights were measured and recorded at 7-day intervals. The feed and water were provided ad libitum to mice. Changes in body weight were analyzed after 12 weeks of continuous gavage ([Pinzón-García et al., 2018]).

[4] = ref Xu et al., 2020, 2019, 2022; cited from earlier work
Text: Peptidomics facilitates the comprehensive characterization of peptides on a large scale. This analytical approach offers a time-efficient means of generating an extensive array of peptide fragments ([Martini, Solieri, & Tagliazucchi, 2021]). Herein, the peptide sequences were retrieved from an established database using MASCOT, and active peptide sequences with Ca-binding capacities were identified. The peptide sequences from SBTH were identified in Table S1 (Supplementary materials), along with information on their amino acid sequences, lengths, and molecular weights. A total of 6505 peptide ...

[5] = ref Xu et al., 2020, 2019, 2022; cited from earlier work; remark: listed apart in the source
[6] = Ca-binding capacity (colorimetric Ca kit); settings: 5 mg sample, 1 mL 5 mM CaCl2, 2 mL PBS 20 mM pH 7, 37 °C 1 h; ranking in words, Fig. 1C
Description: The Ca-binding capacities of SBPH, SBTH, and SBNPH were determined according to the previous study ([Choi, Jung, Choi, Kim, & Ha, 2005]). 5 mg lyophilized powder of SBPH, SBTH, and SBNPH, was mixed with 1 mL of 5 mM CaCl2 and 2 mL of phosphate-buffered saline (PBS, 20 mM, pH = 7). The mixture was stirred at 37 °C pH = 7 for 1 h, followed by centrifugation at 5000 rpm for 10 min. The calcium content in the supernatant was determined using colorimetry with Ca assay kits (JianCheng, Nanjing, China).

[7] = system: α-amylase; assay: α-amylase inhibition rate (DNS method, soluble starch); format: biochemical; settings: 100 μg/mL; α-amylase 4 units/mL, PBS pH 6.9, 37 °C 10 min, 1% soluble starch 5 min, DNS 540 nm; mean, n = 3
Description: (§2) The activity of α-amylase was determined spectrophotometrically using soluble starch as the substrate and 3,5-dinitrosalicylic acid (DNS) as the chromogenic agent. α-amylase solution (4 units/mL, 0.25 mL) and 0.25 mL each of SBPH, SBTH, and SBNPH (each at 1 μg/mL, 10 μg/mL, 100 μg/mL, and 1000 μg/mL concentrations) were added to 0.5 mL of PBS (pH 6.9, 0.2 mol/L) to make test solutions. These solutions were then incubated at 37 °C for 10 min. Then, 0.5 mL of 1% soluble starch solution was added to each test solution to continue the reaction for 5 min. Thereafter, l mL of DNS reagent was added to each solution, and the mixtures were boiled for 10 min. After the dilution of five times, the absorbance value was measured at 540 nm ([Wu et al., 2019]). The inhibition of the activity of α-amylase by salmon bone hydrolysate was calculated as using the formula (1):(1) I%=[1−B−b/A−a×100% where I represents the inhibition rate of α-amylase by salmon bone hydrolysates. A represents the absorbance value of the blank tube, a represents the absorbance value of the blank control tube, B represents the absorbance value of the inhibition tube, and b represents the absorbance value of the background control tube.

[8] = system: α-amylase; assay: α-amylase inhibition during in vitro simulated gastrointestinal digestion; format: biochemical; settings: 0-240 min, DNS method
Description: as §2, with “The inhibition of the activity of α-amylase by salmon bone hydrolysate was calculated as using the formula (1):(1) I%=[1−B−b/A−a×100% where I represents the inhibition rate of α-amylase by salmon bone hydrolysates.” left out
A gastrointestinal digestion simulation test was performed according to a previously reported method ([Brodkorb et al., 2019]). Samples were assessed at 0, 10, 30, 60, 90, 120, 130, 150, 180, 210, and 240 min. The inhibition rates of SBPH, SBTH, and SBNPH for α-amylase were determined by the DNS method.

[9] = system: α-amylase; assay: DLS analysis of α-amylase particle size / hydrodynamic radius; format: biochemical; settings: α-amylase 4 units/mL, substance 1-1000 μg/mL, 24 h incubation
Description: The α-amylase solution (4 units/mL) and SBPH, SBTH, and SBNPH solutions (each at 1, 10, 100, and 1000 μg/mL concentrations) were prepared. Filtration was performed using a 0.45-μm filter. The α-amylase solution was incubated with different concentrations of SBPH, SBTH, and SBNPH solutions for 24 h. Each sample (1 mL) was analyzed using the DLS apparatus. The particle size variation of α-amylase in each solution was analyzed. The α-amylase alone solution was used as a positive control under the same conditions ([Xiong et al., 2016]).

[10] = system: 3 T3-L1 preadipocytes; assay: Cellular triglyceride content; format: cell-based; settings: 1000 μg/mL, with Inducers I and II
Description: as §1
Cellular triglyceride content (TG) was measured using a kit (JianCheng, Nanjing, China). Differentiated adipocytes were treated with different samples in 6-well plates according to the manufacturer's instructions. Cells were first washed with PBS, followed by the addition of ethanol. The cells were then transferred into centrifuge tubes using a cell scraper. Subsequently, the cells were broken down by ultrasound in an ice water bath. […] was measured using a specialized kit.

[11] = system: α-amylase; assay: α-amylase conformation: secondary structure content by circular dichroism; format: biochemical; settings: 1-1000 μg/mL
Description: The effect of peptides on the secondary structure of α-amylase was analyzed by circular dichroism. α-Amylase was reacted with the following different concentrations of SBPH, SBTH, and SBNPH: 1, 10, 100, and 1000 μg/mL. The test parameters were as follows: 1 mm quartz cuvette; scanning wavelength range = 190– 250 nm; bandwidth = 2 nm; scanning speed = 100 nm/min; and response time = 1 s. α-Amylase without SBPH, SBTH, and SBNPH treatment was used as the blank control, and it was analyzed under the same conditions. The experimental results were obtained by subtracting the buffer background from the scanned data ([Zhang & Ma, 2013]).

[12] = target: α-amylase; assay: Kinetics of α-amylase inhibition (Lineweaver-Burk); format: biochemical; settings: 37 °C
Description: The kinetics of α-amylase inhibition was performed with minor modifications as previously reported ([Cardullo et al., 2020]). In the reaction system, 1 mL of soluble starch solution (10 mg/mL) and 1 mL of different concentrations of SBPH, SBTH, and SBNPH (concentrations of 1, 10, 100, and 1000 μg/mL, respectively) were added. a temperature bath was maintained at 37 °C for 30 min. Different concentrations of α-amylase solution were added. The change in absorbance value of the system was determined. Plot the rate of enzymatic reaction versus α-amylase concentration.
To the reaction system, 1 mL of soluble starch solution of different concentrations (0, 5, 10, 15, 20, 25 mg/mL) was added. The effects of different concentrations of SBPH, SBTH and SBNPH on α-amylase activity were determined at 37 °C in a water bath. Finally, the inverse of the concentration of soluble starch solution was used as the horizontal coordinate and plotted with Lineweaver-Burk plots to determine the type of inhibition of α-amylase by SBPH, SBTH and SBNP. The general equation for reversible inhibition is given below: v=vmaxS/Km1+i/Kic+1+i/Kiu 1/v=Km+s/vmaxs+iKm/Kic+s/Kiu/vmaxs 1/v=Km/vmax1+i/Kic+s/vmax1+i/Kiu where Km is the Michaelis-menten constand (mg/mL), v denotes the initial reaction rate (U, mm/min), S denotes the substrate concentration (mg/mL), i denotes the content of the inhibitor concentration (U, mg/mL), Kic denotes the inhibitory constant of the competitive inhibitor, and Kiu denotes the inhibitory constant of the non-competitive inhibitor.

[13] = Lineweaver-Burk double inverse plots, soluble starch 0-25 mg/mL

Compound	cytotoxicity [1]	TC content decreased to [2]	body weight change ([3]; n = 8)	weight gain over three months ([3]; n = 8, basal diet, control group 33.65%)	calcium-binding capability [4]	activity and stability in the gastrointestinal tract [5]	calcium-binding capacity / affinity [6]	α-amylase inhibition rate [7]	α-amylase inhibition rate with simulated digestion time [8]	hydrodynamic radius of α-amylase [9]	TG content reduced to [10]	change of α-amylase secondary structure with increasing concentration [11]	KI [12, 13]	KIS [12, 13]	reversibility of α-amylase inhibition ([12]; enzyme reaction rate against α-amylase concentration)
CCCCCCCCCCC[C@@H](C[C@@H]1OC(=O)[C@H]1CCCCCC)OC(=O)[C@H](CC(C)C)NC=O [orlistat]	no cytotoxicity														
IEELEEELEAER [PIE, Ile-Glu-Glu-Leu-Glu-Glu-Glu-Glu-Leu-Glu-Ala-Glu-Arg, peptide … from SBTH, purity 94.74%, synthesized at ChinaPeptides]		54.35%	no significant weight change	6.61%	pronounced calcium-binding capability	robust activity and stability within the gastrointestinal tract	greatest affinity for calcium	58.81%	the inhibition rate decreased significantly with the increasing duration of gastrointestinal digestion	increased gradually	52.11%	a decrease in α-helix content and an increase in β-fold structures	3290 µg/mL	3.97 mg/mL	reversible
